Type in all cases: physicochemical
Data set [1] can be described thus: Comparative thermal stability study of Form A, Form B and amorphous MRTX849 Drug Substance. The conditions noted are these: for change in appearance on storage: two weeks at 60° C., two months at 25° C./60% RH and 40° C./75% RH. As for the experimental part: (§1) 40° C./75% RH and 60° C. in loosely capped, foil-wrapped small glass vials. Data was obtained for up to two weeks for samples stored at 60° C. and up to two months for samples stored at 25° C./60% RH and 40° C./75% RH. In addition, data was generated from photostability study performed on all three lots as a part of the protocol.

Data set [2] is described as follows: Photostability study (1/2 ICH conditions). As for the experimental part:
as §1

Data set [3] is described as follows: Dynamic vapor sorption isotherm, 25° C., 0-90% RH. The conditions noted are these: for weight gain (DVS): sorption. As for the experimental part:
Sorption isotherms of crystalline Form A were obtained using a SMS GVS Intrinsic moisture sorption analyzer, controlled by GVS Intrinsic Control software. The sample temperature was maintained at 25° C. by the instrument controls. The humidity was controlled by mixing streams of dry and wet nitrogen, with a total flow rate of 200 ml/min. The relative humidity was measured by a calibrated Rotronic probe (dynamic range of 1.0-100% RH), located near the sample. The weight change (mass relaxation) of the sample as a function of % RH was constantly monitored by a microbalance (accuracy ±0.005 mg).
The sample was loaded and unloaded at 40% RH and 25° C. (typical room conditions). A moisture sorption isotherm was performed as outlined below (2 scans per complete cycle). The standard isotherm was performed at 25° C. at 10% RH intervals over a 0-90% RH range. A double cycle (4 scans) was carried out. Data analysis was carried out within Microsoft Excel using the DVS Analysis Suite.
Sorption isotherms of crystalline Form B were obtained using a SMS DVS Intrinsic moisture sorption analyzer, controlled by DVS Intrinsic Control software. The sample temperature was maintained at 25° C. by the instrument controls. The humidity was controlled by mixing streams of dry and wet nitrogen, with a total flow rate of 200 ml/min. The relative humidity was measured by a calibrated Rotronic probe (dynamic range of 1.0-100% RH), located near the sample. The weight change, (mass relaxation) of the sample as a function of % RH was constantly monitored by a microbalance (accuracy ±0.005 mg).
Briefly, a sample of crystalline Form B was placed in a tared mesh stainless steel basket under ambient conditions. The sample was loaded and unloaded at 40% RH and 25° C. (typical room conditions). A moisture sorption isotherm was performed as outlined below (2 scans per complete cycle). The standard isotherm was performed at 25° C. at 10% RH intervals over a 0-90% RH range. A double cycle (4 scans) was carried out. Data analysis was carried out within Microsoft Excel using the DVS Analysis Suite.

Data set [4] is described as follows: Dynamic vapor sorption, 5% to 95% RH. As to the method:
Vapor Sorption isotherms were obtained using a Surface Measurement System (SMS) DVS Intrinsic moisture sorption analyzer, controlled by DVS Intrinsic Control software. Samples were not dried prior to analysis. Sorption and desorption data were collected over a range of 5%-95% relative humidity (RH) at 10% RH increments under a nitrogen purge. The equilibrium criterion used for analysis was less than 0.0100% weight change in 5 minutes with a maximum equilibration time of 3 hours.
Vapor sorption data were collected on a Surface Measurement System DVS Intrinsic instrument. Samples were not dried prior to analysis. Sorption and desorption data were collected over a range from 5% to 95% RH at 10% RH increments under a nitrogen purge. The equilibrium criterion used for analysis was less than 0.0100% weight change in 5 minutes with a maximum equilibration time of 3 hours.

Data set [5] is described as follows: 1 month stability of MRTX849 crystalline vs amorphous, HPLC evaluation after accelerated stress conditions.
The mark [6] stands for this setting: 0.5 × ICH: Vis Stress at 600 klux-hrs, UV Stress at 100 W-hr/m^2.

“And” between values parts separate entries of the source, which are not always exact repeats. Equal values may be shown once.

With `C=C(F)C(=O)N1CCN(c2nc(OC[C@@H]3CCCN3C)nc3c2CCN(c2cccc4cccc(Cl)c24)C3)C[C@@H]1CC#N` [Form A, 2-[(2S)-4-[7-(8-chloro-1-naphthyl)-2-[[(2S)-1-methylpyrrolidin-2-yl]methoxy]-6,8-dihydro-5H-pyrido[3,4-d]pyrimidin-4-yl]-1-(2-fluoroprop-2-enoyl)piperazin-2-yl]acetonitrile Form A], the Appearance entry in data set [1] (1 Month 25° C./60% RH), in data set [1] (1 Month 40° C./75% RH), in data set [1] (1 Week 60° C.), in data set [1] (2 Months 25° C./60% RH), in data set [1] (2 Months 40° C./75% RH) and in data set [1] (2 Weeks 40° C./75% RH) was “Off-white” each time. In addition, the Appearance entry in data set [1] (2 Weeks 60° C.) and in data set [1] (Initial T(0)) was “Off-white” throughout. Further, the Total impurities in data set [1] (1 Month 25° C./60% RH) is 0.98%; in data set [1] (1 Month 40° C./75% RH), 1.04%; in data set [1] (1 Week 60° C.), 1.27%; in data set [1] (2 Months 25° C./60% RH) it was 1.06%; in data set [1] (2 Months 40° C./75% RH) it was 1.2% and 1.16%; in data set [1] (2 Weeks 40° C./75% RH), 1.07%. The Total impurities in data set [1] (2 Weeks 60° C.) is 1.4% and 1.43%. In addition, the “change in appearance on storage” value in data set [1] is “no change in appearance”. In addition, the Purity in data set [2] (setting [6]) was 96.74; in data set [2] (Control), 98.91; in data set [2] (T(0)) it was 98.86. For the same compound, the “weight gain (DVS)” value in data set [3] (at 40% RH) is “about 0.1%”; in data set [3] (at 90% RH) it was 0.6%. Also, in data set [4] (from 5% to 90% RH), the “observed weight gain (DVS)” value was 0.4%.
Consider `C=C(F)C(=O)N1CCN(c2nc(OC[C@@H]3CCCN3C)nc3c2CCN(c2cccc4cccc(Cl)c24)C3)C[C@@H]1CC#N` [Form B, 2-[(2S)-4-[7-(8-chloro-1-naphthyl)-2-[[(2S)-1-methylpyrrolidin-2-yl]methoxy]-6,8-dihydro-5H-pyrido[3,4-d]pyrimidin-4-yl]-1-(2-fluoroprop-2-enoyl)piperazin-2-yl]acetonitrile Form B], for which the Appearance result in data set [1] (1 Month 25° C./60% RH), in data set [1] (1 Month 40° C./75% RH), in data set [1] (1 Week 60° C.), in data set [1] (2 Months 25° C./60% RH), in data set [1] (2 Months 40° C./75% RH) and in data set [1] (2 Weeks 40° C./75% RH) was “Creamy” in each case. The Appearance entry in data set [1] (2 Weeks 60° C.) and in data set [1] (Initial T(0)) was “Creamy” throughout. In addition, the Total impurities in data set [1] (1 Month 25° C./60% RH) was 0.23%; in data set [1] (1 Month 40° C./75% RH) it was 0.35%; in data set [1] (1 Week 60° C.), 0.31%; in data set [1] (2 Months 40° C./75% RH), 0.4% and 0.44%; in data set [1] (2 Weeks 40° C./75% RH), 0.37%; in data set [1] (2 Weeks 60° C.), 0.4%. Also, the Total impurities in data set [1] (Initial T(0)) is listed as 0.3%. Also, the “change in appearance on storage” value in data set [1] is “no change in appearance”. For the same compound, the Purity in data set [2] (setting [6]) amounted to 98.41; in data set [2] (Control) it was 99.74; in data set [2] (T(0)) it was 99.75. In addition, the “weight change (DVS) on desorption” value in data set [3] (at 50% RH after desorption from 70% RH) worked out at 0.4%; in data set [3] (at 70% RH after desorption from 90% RH), 2.2%. Also, the “weight gain (DVS)” value in data set [3] (at 60% RH) is on record as “about 0.6%”; in data set [3] (at 70% RH), 2.9%; in data set [3] (at 90% RH), 2.5%; in data set [4] (between 5% and 55% RH), 0.2 wt %. Also, the “water corresponding to DVS weight gain” value in data set [4] (5% to 95% RH) amounted to 1.3 mol water. In addition, in data set [4] (between 55% and 95% RH), the “weight gain increase (DVS)” value is 3.5%.
Consider `C=C(F)C(=O)N1CCN(c2nc(OC[C@@H]3CCCN3C)nc3c2CCN(c2cccc4cccc(Cl)c24)C3)C[C@@H]1CC#N` [Amorphous, 2-[(2S)-4-[7-(8-chloro-1-naphthyl)-2-[[(2S)-1-methylpyrrolidin-2-yl]methoxy]-6,8-dihydro-5H-pyrido[3,4-d]pyrimidin-4-yl]-1-(2-fluoroprop-2-enoyl)piperazin-2-yl]acetonitrile], for which the “Total impurities (%)” value came to 2.21% in data set [5] (25° C./60% RH, 1 month); 2.98% in data set [5] (40° C./75% RH, 1 month, open); 3.28% in data set [5] (40° C./75% RH, 1 month, listed as MRTX849 amorphous). In addition, the Appearance result in data set [1] (1 Month 25° C./60% RH) is recorded as “Tan Solid”; in data set [1] (1 Month 40° C./75% RH), “Tan Solid”; in data set [1] (1 Week 60° C.) it was “Brown Solid”; in data set [1] (2 Months 25° C./60% RH), “Tan Solid”; in data set [1] (2 Months 40° C./75% RH) it was “Light Brown”; in data set [1] (2 Weeks 40° C./75% RH), “Tan Solid”. Also, the Appearance result in data set [1] (2 Weeks 60° C.) is “Brown Solid”; in data set [1] (Initial T(0)) it was “Tan Solid”. Further, the Total impurities in data set [1] (1 Month 25° C./60% RH) turned out to be 1.42%; in data set [1] (1 Month 40° C./75% RH), 2.36%; in data set [1] (1 Week 60° C.), 5.93%; in data set [1] (2 Months 25° C./60% RH) it was 1.86%; in data set [1] (2 Months 40° C./75% RH), 5.73%; in data set [1] (2 Months 40° C./75% RH, listed as amorphous material) it was 5.7%. Besides, the Total impurities in data set [1] (2 Weeks 40° C./75% RH) turned out to be 1.95%; in data set [1] (2 Weeks 60° C.), 9.89%; in data set [1] (2 Weeks 60° C., listed as amorphous material) it was 9.9%; in data set [1] (Initial T(0), listed as amorphous material), 1.4%. Moreover, the “Color change on storage” value in data set [1] (60° C. condition and after two months at 40° C./75% RH) is reported as “changed from tan to brown/light brown”. The Purity in data set [2] (setting [6]) is reported as 91.25; in data set [2] (Control), 98.42; in data set [2] (T(0)), 98.59.
Take `C=C(F)C(=O)N1CCN(c2nc(OC[C@@H]3CCCN3C)nc3c2CCN(c2cccc4cccc(Cl)c24)C3)C[C@@H]1CC#N` [Form E, 2-[(2S)-4-[7-(8-chloro-1-naphthyl)-2-[[(2S)-1-methylpyrrolidin-2-yl]methoxy]-6,8-dihydro-5H-pyrido[3,4-d]pyrimidin-4-yl]-1-(2-fluoroprop-2-enoyl)piperazin-2-yl]acetonitrile Form E]: in data set [4] (between 5% to 96% RH), the “gradual weight gain (DVS)” value amounted to 1.2%.
As for `C=C(F)C(=O)N1CCN(c2nc(OC[C@@H]3CCCN3C)nc3c2CCN(c2cccc4cccc(Cl)c24)C3)C[C@@H]1CC#N` [MRTX849 crystalline, 2-[(2S)-4-[7-(8-chloro-1-naphthyl)-2-[[(2S)-1-methylpyrrolidin-2-yl]methoxy]-6,8-dihydro-5H-pyrido[3,4-d]pyrimidin-4-yl]-1-(2-fluoroprop-2-enoyl)piperazin-2-yl]acetonitrile], the “Total impurities (%)” value in data set [5] (40° C./75% RH, 1 month) came out at 0.77%.
With `C=C(F)C(=O)N1CCN(c2nc(OC[C@@H]3CCCN3C)nc3c2CCN(c2cccc4cccc(Cl)c24)C3)C[C@@H]1CC#N` [API standard], the “Total impurities (%)” value in data set [5] (API standard) is 0.71%.
